“And” between values parts separate entries of the source, which are not always exact repeats. Identical values can stand only once.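 In this assay, cells in 96-well plates receive the compound at five concentrations for 48 hours. Endpoints are linearly interpolated between the surrounding concentrations. The concentration for 50% growth inhibition is given as GI50. TGI is the concentration that stops growth completely.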
Columns and labels:
Assay in all cases: NCI anticancer screen, dose series, 48 h
[1] = test system: DU-145 prostate
[2] = test system: MCF7 breast
[3] = test system: MDA-MB-231 breast
[4] = test system: MDA-MB-435
[5] = test system: NCI/ADR-RES ovarian
[6] = test system: BT-549 breast
[7] = test system: PC-3 prostate

For `C[C@H]1CC(=O)[C@@]2(O)C#C/C=C\C#C[C@@H]3Nc4c(cc(O)c5c4C(=O)c4ccccc4C5=O)[C@]24O[C@]314`, the GI50 [1] was 0.0025 µM, the GI50 [2] was 0.0025 µM and the TGI [2] was 0.247 µM and 0.895 µM. For the same molecule, the TGI [3] was over 25 µM, the GI50 [4] was 0.0196 µM and the TGI [4] was 0.219 µM and 0.262 µM. For the same molecule, the TGI [5] was 0.44 µM.

In the case of `O=C(/C=C/c1cccs1)Nc1ncc(Cc2ccccc2F)s1`, the TGI [6] is reported as over 100 µM, the GI50 [1] is reported as 0.3 µM and the TGI [1] is reported as over 100 µM. The GI50 [2] was 0.318 µM, the TGI [2] was over 100 µM and the GI50 [3] was 0.611 µM. It also gave a TGI [3] of over 100 µM, a GI50 [4] of 0.0312 µM and a TGI [4] of 0.113 µM. For the same molecule, the GI50 [5] was 0.246 µM, the TGI [5] was over 100 µM and the GI50 [7] was 0.261 µM. It also gave a TGI [7] of over 100 µM.

`CCOC(=O)c1cc2cc([N+](=O)[O-])ccc2oc1=O` gave a TGI [6] of over 100 µM, a TGI [1] of over 100 µM and a TGI [2] of over 100 µM. It also gave a TGI [3] of over 100 µM, a TGI [4] of over 100 µM and a TGI [5] of over 100 µM. It also gave a TGI [7] of over 100 µM.

For `C=C1C(=O)O[C@H]2[C@H](OC(C)=O)[C@@H](C)CCC/C(C)=C/CC[C@]3(CO3)[C@H](O)C[C@@H]12`, the GI50 [6] was 3.77 µM, the TGI [6] was 15.4 µM and the GI50 [1] was 2.56 µM. It also gave a TGI [1] of 10.2 µM, a GI50 [2] of 3.24 µM and a TGI [2] of 12 µM. For the same molecule, the GI50 [3] was 5.25 µM, the TGI [3] was 17.2 µM and the GI50 [4] was 3.01 µM. It also gave a TGI [4] of 7.99 µM, a GI50 [5] of 5.92 µM and a TGI [5] of 35.2 µM.

`CCn1c(-c2cc3ccccc3cc2OC(=O)c2ccccc2)n[nH]c1=S` gave a GI50 [6] of 34 µM, a TGI [6] of over 50 µM and a GI50 [1] of over 50 µM. It also gave a TGI [1] of over 50 µM, a GI50 [2] of over 50 µM and a TGI [2] of over 50 µM. The GI50 [3] was 25.2 µM, the TGI [3] was over 50 µM and the GI50 [4] was over 50 µM. For the same molecule, the TGI [4] was over 50 µM, the GI50 [5] was 23.2 µM and the TGI [5] was over 50 µM. The GI50 [7] was 19.6 µM and the TGI [7] was over 50 µM.

`CCn1cc(C2NC(=O)c3cc(F)ccc3N2)c2cccc(Cl)c21` (configuration not stated) was tested, and the GI50 [6] was 0.327 µM, the TGI [6] was over 100 µM and the GI50 [1] was 0.379 µM. For the same molecule, the TGI [1] was over 100 µM, the GI50 [2] was 0.0913 µM and the TGI [2] was over 100 µM. It also gave a GI50 [3] of 0.503 µM, a TGI [3] of over 100 µM and a GI50 [4] of 0.0367 µM. It also gave a TGI [4] of 0.142 µM, a GI50 [5] of 0.081 µM and a TGI [5] of 0.75 µM. The GI50 [7] was 0.296 µM and the TGI [7] was over 100 µM.

`COCCn1cc(-c2csc(-c3c[nH]c4ccc(F)cc34)n2)c2cccnc21` was tested, and the GI50 [6] was 4.26 µM, the TGI [6] was over 100 µM and the GI50 [1] was 18.8 µM. It also gave a TGI [1] of over 100 µM, a GI50 [2] of 2.09 µM and a TGI [2] of over 100 µM. It also gave a GI50 [3] of 2.59 µM, a TGI [3] of over 100 µM and a GI50 [4] of 0.89 µM. For the same molecule, the TGI [4] was 14.3 µM, the GI50 [5] was 2.17 µM and the TGI [5] was 29.2 µM. It also gave a GI50 [7] of 5.07 µM and a TGI [7] of over 100 µM.

Work on `N#CC(C#N)=C/C=C/c1cccc([N+](=O)[O-])c1` yielded a GI50 [1] of 1.05 µM, a TGI [1] of 12.8 µM and a GI50 [2] of 0.482 µM. The TGI [2] was 9.55 µM, the GI50 [3] was 1.74 µM and the TGI [3] was 16 µM. It also gave a GI50 [4] of 0.426 µM, a TGI [4] of 2.53 µM and a GI50 [5] of 0.652 µM. For the same molecule, the TGI [5] was 5.04 µM, the GI50 [7] was 2.09 µM and the TGI [7] was 19.3 µM.

In the case of `COc1ccccc1OCC(O)CO` (configuration not stated), the GI50 [6] is reported as over 100 µM, the TGI [6] is reported as over 100 µM and the GI50 [1] is reported as over 100 µM. The TGI [1] was over 100 µM, the GI50 [2] was over 100 µM and the TGI [2] was over 100 µM. It also gave a GI50 [3] of over 100 µM, a TGI [3] of over 100 µM and a GI50 [4] of over 100 µM. It also gave a TGI [4] of over 100 µM, a GI50 [5] of over 100 µM and a TGI [5] of over 100 µM. It also gave a GI50 [7] of over 100 µM and a TGI [7] of over 100 µM.

`CN1C=CN(Cc2ccc(-c3ccccn3)nc2)[CH-]1.CN1C=CN(Cc2ccc(-c3ccccn3)nc2)[CH-]1.[Au+3]` showed a GI50 [6] of 2.46 µM, a TGI [6] of 20.1 µM and a GI50 [1] of 4.16 µM. The TGI [1] was 36.8 µM, the GI50 [2] was 0.314 µM and the TGI [2] was 12.2 µM. It also gave a GI50 [3] of 2.64 µM, a TGI [3] of 15 µM and a GI50 [4] of 2.97 µM. For the same molecule, the TGI [4] was 20.9 µM, the GI50 [5] was over 70.8 µM and the TGI [5] was over 100 µM. It also gave a GI50 [7] of 0.922 µM and a TGI [7] of over 100 µM.

Work on `ClCc1ccc(Cn2cnc3ncnc(Cl)c32)cc1` yielded a GI50 [6] of 3.75 µM, a TGI [6] of 16.9 µM and a GI50 [2] of 1.35 µM. It also gave a TGI [2] of 2.94 µM, a GI50 [3] of 1.76 µM and a TGI [3] of 3.35 µM. It also gave a GI50 [4] of 5.82 µM, a TGI [4] of 19.2 µM and a GI50 [5] of 1.81 µM. For the same molecule, the TGI [5] was 4.68 µM, the GI50 [7] was 1.58 µM and the TGI [7] was 2.93 µM.

Molecule `C1CCN2CC34CC(CC5CCCN(C6CCCC3N6)C54)C2C1` (configuration not stated) has a TGI [6] of over 100 µM, a TGI [1] of over 100 µM and a TGI [2] of over 100 µM. For the same molecule, the TGI [3] was over 100 µM, the TGI [4] was over 100 µM and the TGI [5] was over 100 µM. For the same molecule, the TGI [7] was over 100 µM.

Molecule `CCc1ccc(/C=C2/SC(=S)NC2=O)cc1` has a GI50 [6] of 20.9 µM, a TGI [6] of 58.2 µM and a GI50 [1] of 38.6 µM. It also gave a TGI [1] of over 100 µM, a GI50 [2] of 21.2 µM and a TGI [2] of over 85.5 µM. The GI50 [3] was 18.9 µM, the TGI [3] was 46.7 µM and the GI50 [4] was 27.5 µM. The TGI [4] was over 100 µM, the GI50 [5] was 25.3 µM and the TGI [5] was 89.4 µM. For the same molecule, the GI50 [7] was 23.3 µM and the TGI [7] was over 100 µM.

Work on `COCCOCCOCCOCCOc1ccc2c(c1)C(=O)c1nc3ncccc3c(=O)n1-2` yielded a GI50 [6] of 1.1 µM, a TGI [6] of 2.3 µM and a GI50 [1] of 0.54 µM. For the same molecule, the TGI [1] was 1.79 µM, the GI50 [2] was 0.799 µM and the TGI [2] was 2.2 µM. For the same molecule, the GI50 [3] was 2.93 µM, the TGI [3] was 52 µM and the GI50 [4] was 0.188 µM. The TGI [4] was 0.364 µM, the GI50 [5] was 2.09 µM and the TGI [5] was 6.41 µM. It also gave a GI50 [7] of 1.67 µM and a TGI [7] of 16.5 µM.

Molecule `COc1cc(C(=O)c2c(-c3ccccc3)oc3ccccc23)cc(OC)c1O` has a GI50 [6] of 1.39 µM, a TGI [6] of 7.82 µM and a GI50 [1] of 3.15 µM. The TGI [1] was 13.6 µM, the GI50 [2] was 0.399 µM and the TGI [2] was 16 µM. It also gave a GI50 [3] of 4.24 µM, a TGI [3] of 22.5 µM and a GI50 [4] of 0.285 µM. It also gave a TGI [4] of 0.777 µM, a GI50 [5] of 0.876 µM and a TGI [5] of 20 µM. The GI50 [7] was 3.47 µM and the TGI [7] was 15.7 µM.

With `O=C(Nc1ccc(-c2nc3ccc(NC(=O)c4ccc(Cl)cc4)cc3[nH]2)cc1)c1ccc(Cl)cc1` the GI50 [6] was 6.56 µM, the TGI [6] was 20.7 µM and the GI50 [1] was 2.43 µM. It also gave a TGI [1] of 7.16 µM, a GI50 [2] of 1.23 µM and a TGI [2] of 4.91 µM. It also gave a GI50 [3] of 3.68 µM, a TGI [3] of 15.4 µM and a GI50 [4] of 2.36 µM. It also gave a TGI [4] of 7.14 µM, a GI50 [5] of 17 µM and a TGI [5] of 64.4 µM. It also gave a GI50 [7] of 2.11 µM and a TGI [7] of 5.93 µM.

In the case of `Cn1cc(/C=C2\C(=O)Nc3cccnc32)c2ccccc21`, the GI50 [6] is reported as over 25 µM, the TGI [6] is reported as over 25 µM and the GI50 [1] is reported as 18 µM. For the same molecule, the TGI [1] was over 25 µM, the GI50 [2] was 8.04 µM and the TGI [2] was over 25 µM. For the same molecule, the GI50 [3] was 11.1 µM, the TGI [3] was over 25 µM and the GI50 [4] was 18 µM. For the same molecule, the TGI [4] was over 25 µM, the GI50 [5] was 20.4 µM and the TGI [5] was over 25 µM. The GI50 [7] was 22.9 µM and the TGI [7] was over 25 µM.

For `Cc1cc(C#Cc2ccccc2)ccc1-n1c(/C=C/c2ccc(O)cc2)nc2ccccc2c1=O`, the GI50 [1] was 4.87 µM, the TGI [1] was over 100 µM and the GI50 [2] was 2.72 µM. It also gave a TGI [2] of 11 µM, a GI50 [3] of 3.89 µM and a TGI [3] of 29.5 µM. For the same molecule, the GI50 [4] was 2.82 µM, the TGI [4] was 22.8 µM and the GI50 [5] was 3.09 µM. It also gave a TGI [5] of 42 µM, a GI50 [7] of 3.24 µM and a TGI [7] of over 100 µM.
